The text below walks through data of US6300499A, “α1-adrenergic receptor antagonists” (Societe de Conseils de Recherches et d'Applications …, priority 1998, dated 2001).

Experiment [1] deals with prostatic urethrae. Put plainly: Urethra Contraction Test (inhibition of phenylephrine contraction of prostatic urethra). Also on record: species or system rabbit (male New Zealand). The following applies: inhibition of contraction of rabbit prostatic urethra, agonist phenylephrine, compound 30 min before. The protocol: The urethrae are removed from male New Zealand rabibits, and cleaned of the surrounding connective tissues. Bands of prostatic urethrae (3 mm wide, 10-15 mm long) are suspended (1 g tension) in organ baths containing 10 ml of physiological solution (pH 7.4) at 37° C. under an atmosphere of 95% O2 /5% CO2; NaCl (118 mM); KCl (4.7 mM); CaCl2 (2.5 mM); KH2 PO4 (1.2 mM); MgSO4 (1.2 mM); NaHCO3 (25 mM); glucose (11 mM). The contractile responses are measured using force displacement transducers coupled to a Gould 8000S polygraph. A one hour period of equilibration or equalization is provided before the experiment. After equalization, the preparations are sensitized by a submaximal concentration of phenylephrine. Forty five minutes after the sensitization, a concentration-effect curve for the phenylephrine is established. In order to determine the effect of the test compounds, different preparations originating from the same animal are used in parallel. One preparation serves as a control whilst the others receive a concentration of a test compound introduced into the bath 30 minutes before the phenylephrine (Auguet, M. et al. European J. Pharmacol. 217:153 (1995)).
The dissociation constants (Kb) of the test compounds are determined using the following equation: Kb =[B]/(dose ratio--1); in which [B] is the concentration of test compound and (dose ratio) is the EC50 of phenylephrine in the presence of the test compound divided by the EC50 of the control preparation. These resultats are then expressed as the negative logarithm of Kb. The values of the EC50 are calculated from the maximum contractile response to the phenylephrine by computer analysis using a linear regression over the average tension values. The maximum contractile response of each preparation which was subjected to the test compound is determined by comparing the response provoked by the application of the sensitizing concentration of phenylephrine with the response provoked in the control preparation (which has not received the test compounds).

Experiment [2] concerns portal vein of the rabbit. Put plainly: Test of the contraction of the portal vein of the rabbit (phenylephrine). More on the design: species or system rabbit (male New Zealand). The protocol: (§1) The aorta and the portal vein are extracted from male New-Zealand rabbits (2.5-3.5 kg, Dombes Romans, France) after cervical dislocation and cleaned of the surrounding connective tissues. […] The contractile responses are measured using force displacement transducers coupled to a Gould RS3400 polygraph. A one hour period of equilibration or equalization is provided before the experiment. […] When the contraction provoked by the phenylephrine is stabilized, carbachol (10 μM) is administered with the aim of controlling the disorganisation of the endothelium in the vessels. Seventy five minutes after the sensitization, a concentration-effect curve for the phenylephrine is established. In order to determine the effect of the test compounds, different preparations are used in parallel. One preparation serves as a control whilst the others receive different concentrations of test compounds introduced into the bath 60 minutes before the phenylephrine. The results are expressed as averages ±S.E.M. or percentage of contraction. […] The EC50 values are calculated from the maximum contractile response by computer analysis using a linear regression over the average tension values.

The subject of experiment [3] is aorta of the rat. Briefly: Test of the contraction of the aorta of the rat (phenylephrine). More on the design: species or system rat (male Sprague Dawley). The following applies: agonist phenylephrine, compound 60 min before. The protocol:
(§2) The aorta and the portal vein are extracted from male Sprague Dawley rats (275-350 g, Charles River, France) after cervical dislocation and cleaned of the surrounding connective tissues. […] The contractile responses are measured using force displacement transducers either coupled to a Gould […] polygraph or connected to a data retrieval system ([…], France). A one hour period of equilibration or equalization is provided before the experiment. […] Seventy five minutes, after the sensitization, a concentration-effect curve for the phenylephrine is established. In order to determine the effect of the test compounds, different preparations are used in parallel. One preparation serves as a control whilst the others receive different test compounds introduced into the bath 60 minutes before the aministration of the phenylephrine. The results are expressed as averages ±S.E.M. or percentage of contraction. […] The EC50 values are calculated from the maximum contractile response by computer analysis using a linear regression over the average tension values.

Experiment [4] concerns the target α1-adrenergic receptor. Briefly: Test of the bond to the α1-adrenergic receptor (inhibition of [3H]prazosin bond to rat cerebral cortex). The experiment is classed as binding, rat (male Sprague Dawley). The note with it: [3H]prazosin 0.2 nM, rat cerebral cortex membranes, 30 min, 25° C., pH 7.7. Here is the method:
The cerebral cortices of male Sprague Dawley rats are homogenized at 4° C. in Tris-HCl 50 mM pH=7.7 and centrifuged at 50,000 g for 30 minutes at 4° C. The pellets are again suspended in the same buffer and centrifuged again at 50,000 g for 30 minutes at 4° C.
The filters are rinsed three times with the same buffer at 0-4° C. and their radioactivity is tested by liquid scintillation spectrometry.
The specific bonds are obtained by subtracting the non-specific bonds (determined in the presence of 10 μM of phentolamine (Sigma Chemical Co. St. Louis Mo.)) from the total bonds. The data relative to the bonds is analyzed by computer assisted iterative non-linear regression analysis, using the Ligand program (Munson, P. J., Rodbard, D. Anal. Biochem. 107:220 (1980)).

For experiment [5], the system named is portal vein of the rat. Put plainly: Test of the contraction of the portal vein of the rat (phenylephrine). Also on record: species or system rat (male Sprague Dawley). Here is the method:
as §2

The subject of experiment [6] is saphenous vein of the rabbit. Put plainly: Test of the contraction of the saphenous vein of the rabbit (phenylephrine). Also on record: species or system rabbit (male New Zealand). Here is the method:
The contractile responses are measured using force displacement transducers coupled to a Gould RS3400 polygraph. […] A one hour period of equilibration or equalization is provided before the experiment. During this equalization period, the tension of the venous rings is left to relax and the final tension is maintained at 0.5 g. After equalization, the preparations are sensitized by a submaximal concentration (3 μM) of phenylephrine. When the contraction triggered by the phenylephrine is stabilized, carbachol (10 μM) is administered in order to control the disorganisation of the endothelium in the vessels. Seventy five minutes after the sensitization, a concentration-effect curve for the phenylephrine is established. In order to determine the effect of the test compounds, different preparations are used in parallel. One preparation serves as a control whilst the others receive different test compounds introduced into the bath 60 minutes before the administration of the phenylephrine The results are expressed as averages ±S.E.M. or percentage of contraction. […] The EC50 values are calculated from the maximum contractile response by computer analysis using a linear regression over the average tension values.

The test system of experiment [7] is aorta of the rabbit. Briefly: Test of the contraction of the aorta of the rabbit (phenylephrine). Also on record: species or system rabbit (male New Zealand). The note with it: agonist phenylephrine, compound 60 min before. The protocol:
as §1

`Cc1ccc(C)c(N2CCN(CCCNC(=O)[C@@](C)(O)c3ccccc3)CC2)c1` [Compound 45, S-(+)-N-[3-{4-(2,5-dimethylphenyl)-1-piperazinyl}-propyl]-α-hydroxy-α-methyl-benzeneacetamide]: the “-log Kb” value in experiment [1] was found to be 8.3. For the same compound, the Kb was 1.6 nM in experiment [2] (rabbit portal vein, agonist phenylephrine, compound 60 min before); 45 nM in experiment [3]; 1.4 nM in experiment [5] (rat portal vein, agonist phenylephrine, compound 60 min before); 15 nM in experiment [6] (rabbit saphenous vein, agonist phenylephrine, compound 60 min before); 63 nM in experiment [7]. Besides, the “Selectivity Kb (Aorta)/Kb (Vein)” value in experiment [2] (rabbit, aorta / portal vein) came out at 40; in experiment [5] (rat, aorta / portal vein) it was 32. The compound also showed a Ki in experiment [4] of 13 nM. Also, in experiment [6] (rabbit, saphenous vein / portal vein), the “Selectivity Kb (Salphenous vein)/Kb (Portal vein)” value was determined as 8.4.

As for `Cc1ccc(C)c(N2CCN(CCCNC(=O)[C@](C)(O)c3ccccc3)CC2)c1` [Compound 46, R-(-)-N-[3-{4-(2,5-dimethylphenyl)-1-piperazinyl}-propyl]-α-hydroxy-α-methyl-benzeneacetamide], in experiment [1], the “-log Kb” value is listed as 7.5. Besides, in experiment [4], the inhibition constant (Ki) stood at 48 nM.
